Assay results: patent publication US12595280B2, “Phosphoramidates for the treatment of hepatitis B virus” (priority 2014, dated 2026)
Where two headings read alike, the source gives them in different places.

How the values were obtained:
HBV = HBV efficacy assay: viral DNA in HepG2.2.15 supernatant by qPCR; assay type: cell-based; conditions: Hepatitis B virus
Description: HepG2.2.15 cells (100 μL) in RPMI1640 medium with 10% fetal bovine serum was added to all wells of a 96-well plate at a density of 1×10^4 cells per well and the plate was incubated at 37° C. in an environment of 5% CO2 for 24 hours. Following incubation, six ten-fold serial dilutions of test compound prepared in RPMI1640 medium with 10% fetal bovine serum were added to individual wells of the plate in triplicate. Six wells in the plate received medium alone as a virus only control. The plate was incubated for 6 days at 37° C. in an environment of 5% CO2. The culture medium was changed on day 3 with medium containing the indicated concentration of each compound. One hundred microliters of supernatant was collected from each well for analysis of viral DNA by qPCR and cytotoxicity was evaluated by XTT staining of the cell culture monolayer on the sixth day.
Ten microliters of cell culture supernatant collected on the sixth day was diluted in qPCR dilution buffer (40 μg/mL sheared salmon sperm DNA) and boiled for 15 minutes. Quantitative real time PCR was performed in […] using an Applied Biosystems 7900HT Sequence Detection System and the supporting SDS 2.4 software. Five microliters (5 μL) of boiled DNA for each sample and serial 10-fold dilutions of a quantitative DNA standard were subjected to real time Q-PCR using Platinum Quantitative PCR SuperMix-UDG (Invitrogen) and specific DNA oligonucleotide primers (IDT, Coralville, […]) HBV-AD38-qF1 (5′-CCGTCTGTGCCTTCTCATCTG-3′) (SEQ ID NO: 1), HBV-AD38-qR1 (5′-AGT CCA AGA GTY CTC TTA TRY AAG ACC TT-3′) (SEQ ID NO: 2), and HBV-AD38-qP1 (5′-FAM CCG TGT GCA/ZEN/CTT CGC TTC ACC TCT GC-3′BHQ1) (SEQ ID NO: 3, underlined portion only) at a final concentration of 0.2 μM for each primer in a total reaction volume of 15 μL. The HBV DNA copy number in each sample was interpolated from the standard curve by the SDS.24 software and the data were imported into an Excel spreadsheet for analysis.

[1] = human, in vivo; cited from earlier work
[2] = tested on: HBV encoded polymerase (Hepatitis B virus genotype D subtype ayw); conditions: cited from earlier work
HBV encoded polymerase (Hepatitis B virus genotype D subtype ayw), sequence (P03156 whole entry): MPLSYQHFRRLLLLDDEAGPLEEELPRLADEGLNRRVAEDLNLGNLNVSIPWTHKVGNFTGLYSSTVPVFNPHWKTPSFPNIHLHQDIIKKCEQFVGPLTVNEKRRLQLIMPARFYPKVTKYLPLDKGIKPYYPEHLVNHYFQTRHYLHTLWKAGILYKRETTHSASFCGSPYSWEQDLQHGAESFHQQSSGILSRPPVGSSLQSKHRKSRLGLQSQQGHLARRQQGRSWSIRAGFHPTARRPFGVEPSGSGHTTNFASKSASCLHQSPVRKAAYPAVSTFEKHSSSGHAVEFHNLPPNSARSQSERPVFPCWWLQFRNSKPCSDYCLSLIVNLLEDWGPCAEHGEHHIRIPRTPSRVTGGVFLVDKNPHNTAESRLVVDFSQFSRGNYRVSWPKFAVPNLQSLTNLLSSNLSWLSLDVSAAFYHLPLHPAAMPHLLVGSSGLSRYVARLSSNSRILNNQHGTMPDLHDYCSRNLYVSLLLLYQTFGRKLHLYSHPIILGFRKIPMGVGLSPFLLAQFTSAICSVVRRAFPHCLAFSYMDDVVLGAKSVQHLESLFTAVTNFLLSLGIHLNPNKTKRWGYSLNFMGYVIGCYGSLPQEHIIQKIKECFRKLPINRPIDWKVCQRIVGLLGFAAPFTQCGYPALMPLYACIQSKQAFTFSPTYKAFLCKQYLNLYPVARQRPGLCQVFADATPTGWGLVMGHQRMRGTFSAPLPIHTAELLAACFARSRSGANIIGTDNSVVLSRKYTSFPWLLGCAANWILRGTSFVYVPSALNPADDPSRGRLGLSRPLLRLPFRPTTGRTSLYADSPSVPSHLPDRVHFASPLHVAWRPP

[3] = HepG2.2.15, 144 h, read-out: HBV Efficacy Assay EC50 (μM)
[4] = 144 h, HepG2.2.15 cells, 6 days, viral DNA in supernatant by qPCR, read-out: HBV Efficacy Assay EC50

SMILES | EC50 (HBV; [3]) | also measured
Cc1cn([C@H]2O[C@@H](CO)[C@H](O)[C@H]2F)c(=O)[nH]c1=O | 0.46 µM | –
Cc1cn([C@H]2O[C@@H](CO[P@@](=O)(N[C@@H](C)C(=O)OC(C)C)Oc3ccccc3)[C@H](O)[C@H]2F)c(=O)[nH]c1=O | 1.71 µM | –
Cc1cn([C@H]2O[C@@H](CO[P@](=O)(N[C@@H](C)C(=O)OC(C)C)Oc3ccccc3)[C@H](O)[C@H]2F)c(=O)[nH]c1=O | 4.29 µM | –
Cc1cn([C@H]2O[C@@H](CO[P@@](=O)(N[C@@H](C)C(=O)OC(C)C)Oc3ccccc3)[C@H](O[P@@](=O)(N[C@@H](C)C(=O)OC(C)C)Oc3ccccc3)[C@H]2F)c(=O)[nH]c1=O | 2.9 µM | –
Cc1cn([C@H]2O[C@@H](CO[P@](=O)(N[C@@H](C)C(=O)OC(C)C)Oc3ccccc3)[C@H](O[P@](=O)(N[C@@H](C)C(=O)OC(C)C)Oc3ccccc3)[C@H]2F)c(=O)[nH]c1=O | 2.39 µM | –
Cc1cn([C@H]2O[C@@H](CO)C(O)C2F)c(=S)[nH]c1=O (some centres unmarked) | – | EC50 (HBV; [4]): > 100 µM
Cc1cn([C@H]2O[C@@H](CO[P@](=O)(N[C@@H](C)C(=O)OC(C)C)Oc3ccccc3)C(O)C2F)c(=S)[nH]c1=O (some centres unmarked) | > 100 µM | –
Cc1cn([C@H]2O[C@@H](CO[P@@](=O)(N[C@@H](C)C(=O)OC(C)C)Oc3ccccc3)C(O)C2F)c(=S)[nH]c1=O (some centres unmarked) | > 100 µM | –
Nc1ccn([C@@H]2CS[C@H](CO)O2)c(=O)n1 | – | EC50 (HBV; [4]): 0.14 µM
Cc1cn([C@H]2O[C@@H](CO)[C@H](O)[C@H]2F)c(=O)[nH]c1=O [Clevudine] | – | adverse effect in patients [1]: drug-related skeletal myopathy
Cc1cn([C@H]2O[C@@H](COP(=O)(O)OP(=O)(O)OP(=O)(O)O)C(O)C2F)c(=O)[nH]c1=O (some centres unmarked) [clevudine triphosphate, Clevudine-5′-Triphosphate] | – | mode of inhibition of the HBV encoded polymerase [2]: competitive non-substrate inhibitor
